Experimental data: patent US8952024B2, “Herbicidal pyrimidone derivatives” (E I du Pont de Nemours and Company, priority 2009, dated 2015)

What was measured:
Type in all cases: in vivo
[1] = tested on: barnyardgrass (Echinochloa crus-galli); assay: Test A pre-/postemergence plant response; conditions: for Barnyardgrass plant response rating: visual injury, 0 to 100 scale (0 no effect, 100 complete control), approx. ten days
In short: (§1)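 Injury was scored visually after roughly ten days against untreated controls, 0 = no effect, 100 = complete control. Test chemicals in a surfactant-containing non-phytotoxic solvent were sprayed either onto soil preemergence or onto one- to two-leaf, 2–10 cm plants postemergence.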

[2] = tested on: corn (Zea mays); assay: Test A pre-/postemergence plant response; conditions: for Corn plant response rating: visual injury, 0 to 100 scale (0 no effect, 100 complete control), approx. ten days
In short: as §1

[3] = tested on: giant foxtail (Setaria faberii); assay: Test A pre-/postemergence plant response
In short: as §1

[4] = tested on: large crabgrass (Digitaria sanguinalis); assay: Test A pre-/postemergence plant response; conditions: for Crabgrass, Large plant response rating: visual injury, 0 to 100 scale (0 no effect, 100 complete control), approx. ten days
In short: as §1

[5] = tested on: morningglory (Ipomoea spp.); assay: Test A pre-/postemergence plant response
In short: as §1

[6] = tested on: pigweed (Amaranthus retroflexus); assay: Test A pre-/postemergence plant response
In short: as §1

[7] = tested on: velvetleaf (Abutilon theophrasti); assay: Test A pre-/postemergence plant response
In short: as §1

[8] = tested on: wheat (Triticum aestivum); assay: Test A pre-/postemergence plant response
In short: as §1

[9] = tested on: cocklebur (Xanthium strumarium); assay: Test B pre-/postemergence plant response; conditions: for Cocklebur plant response rating: 0 to 100 scale
In short: (§2)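 Steps: sow seed in loam–sand soil and spray preemergence, or grow plants in peat-based medium to 1–4 leaves (2–18 cm) and spray postemergence; formulation is non-phytotoxic solvent plus surfactant; hold in greenhouse 13–15 days; score visually vs controls, 0 = no effect, 100 = complete control.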

[10] = tested on: giant foxtail (Setaria faberii); assay: Test B pre-/postemergence plant response; conditions: for Foxtail, Giant plant response rating: 0 to 100 scale
In short: as §2

[11] = tested on: green foxtail (Setaria viridis); assay: Test B pre-/postemergence plant response; conditions: for Foxtail, Green plant response rating: 0 to 100 scale
In short: as §2

[12] = Postemergence, 125 g ai/ha, 0 to 100 scale where 0 is no effect and 100 is complete control
[13] = Preemergence, 125 g ai/ha, 0 to 100 scale, 0 = no effect, 100 = complete control
[14] = Preemergence, 500 g ai/ha, 0 to 100 scale, 0 = no effect, 100 = complete control
[15] = Postemergence, 500 g ai/ha, visual injury, 0 to 100 scale (0 no effect, 100 complete control), approx. ten days
[16] = Postemergence, 31 g ai/ha, 0 to 100 scale (0 no effect, 100 complete control)
[17] = Postemergence, 125 g ai/ha, scale 0 to 100 (0 no effect, 100 complete control)
[18] = Postemergence, 250 g ai/ha, scale 0 to 100 (0 no effect, 100 complete control), 13 to 15 days
[19] = Postemergence, 62 g ai/ha, scale 0 to 100 (0 no effect, 100 complete control)
[20] = Preemergence, 62 g ai/ha, scale 0 to 100, 0 no effect, 100 complete control
[21] = Preemergence, 31 g ai/ha, scale 0 to 100 (0 no effect, 100 complete control)
[22] = Preemergence, 125 g ai/ha, scale 0 to 100, 0 no effect, 100 complete control
[23] = Preemergence, 125 g ai/ha, 0 to 100 scale where 0 is no effect and 100 is complete control, approximately ten days
[24] = Postemergence, 125 g ai/ha, visual injury, 0 to 100 scale (0 no effect, 100 complete control), approx. ten days
[25] = Postemergence, 125 g ai/ha, scale 0 (no effect) to 100 (complete control), 13 to 15 days

CCCCn1c(C2CC2)ncc(C(=O)C2=C(O)CCCC2=O)c1=O [Compound 193]
40: Corn plant response rating ([2]; Postemergence, 500 g ai/ha) | Plant response rating, Wheat [8, 12] | Plant response rating, Foxtail, Green [11, 16]
75: Plant response rating, Cocklebur [9, 20] | Plant response rating, Foxtail, Giant [10, 16]
50: Plant response rating, Wheat [8, 14] | Plant response rating, Foxtail, Green [11, 19] | Plant response rating, Foxtail, Green [11, 20] | Plant response rating, Foxtail, Green [11, 22]
90: Plant response rating, Barnyardgrass [1, 12] | Plant response rating, Barnyardgrass [1, 14] | Plant response rating, Foxtail, Giant [3, 12] | Plant response rating, Foxtail, Giant [3, 13] | Plant response rating, Foxtail, Giant [3, 14] | Plant response rating, Crabgrass, Large [4, 13] | Plant response rating, Morningglory [5, 14]
65: Plant response rating, Foxtail, Giant [10, 20]
70: Wheat plant response rating [8, 15] | Plant response rating, Foxtail, Giant [10, 22]
10: Plant response rating, Corn [2, 12]
5: Plant response rating, Foxtail, Green [11, 21]
85: Plant response rating, Foxtail, Giant [10, 19]
0: Plant response rating, Corn [2, 13] | Plant response rating, Corn [2, 14] | Plant response rating, Wheat [8, 13] | Plant response rating, Foxtail, Giant [10, 21]
98: Foxtail, Green plant response rating ([11]; Preemergence, 250 g ai/ha)
100: Barnyardgrass plant response rating ([1]; Postemergence, 500 g ai/ha) | Foxtail, Giant plant response rating [3, 15] | Plant response rating, Crabgrass, Large [4, 12] | Crabgrass, Large plant response rating ([4]; Postemergence, 500 g ai/ha) | Plant response rating, Crabgrass, Large [4, 14] | Plant response rating, Morningglory [5, 12] | Morningglory plant response rating [5, 15] | Plant response rating, Pigweed [6, 12] | Pigweed plant response rating [6, 15] | Plant response rating, Pigweed [6, 13] | Plant response rating, Pigweed [6, 14] | Plant response rating, Velvetleaf [7, 12] | Velvetleaf plant response rating [7, 15] | Plant response rating, Velvetleaf [7, 13] | Plant response rating, Velvetleaf [7, 14] | Plant response rating, Cocklebur [9, 17] | Plant response rating, Cocklebur [9, 18] | Plant response rating, Foxtail, Giant [10, 18]
80: Plant response rating, Barnyardgrass [1, 13] | Plant response rating, Morningglory [5, 13] | Foxtail, Giant plant response rating ([10]; Preemergence, 250 g ai/ha) | Plant response rating, Foxtail, Green [11, 18]
60: Plant response rating, Foxtail, Green [11, 17]
95: Plant response rating, Cocklebur [9, 16] | Plant response rating, Cocklebur [9, 19] | Cocklebur plant response rating ([9]; Preemergence, 250 g ai/ha) | Plant response rating, Foxtail, Giant [10, 17]

COCCCn1c(-c2cc(F)cc(F)c2)ncc(C(=O)C2=C(O)C3CCC(C3)C2=O)c1=O (stereo not drawn) [Compound 244]
50: Plant response rating, Velvetleaf [7, 23]
70: Plant response rating, Foxtail, Giant [3, 23] | Wheat plant response rating [8, 15]
60: Plant response rating, Foxtail, Giant [10, 21]
80: Corn plant response rating ([2]; Postemergence, 500 g ai/ha) | Plant response rating, Morningglory [5, 14] | Plant response rating, Foxtail, Giant [10, 20]
45: Plant response rating, Foxtail, Green [11, 20]
30: Plant response rating, Barnyardgrass [1, 23] | Plant response rating, Morningglory [5, 23]
98: Plant response rating, Foxtail, Green [11, 25] | Plant response rating, Foxtail, Green [11, 19]
100: Barnyardgrass plant response rating ([1]; Postemergence, 500 g ai/ha) | Plant response rating, Barnyardgrass [1, 14] | Plant response rating, Foxtail, Giant [3, 14] | Plant response rating, Crabgrass, Large [4, 14] | Plant response rating, Morningglory [5, 24] | Morningglory plant response rating [5, 15] | Plant response rating, Pigweed [6, 24] | Pigweed plant response rating [6, 15] | Plant response rating, Pigweed [6, 23] | Plant response rating, Pigweed [6, 14] | Plant response rating, Velvetleaf [7, 24] | Velvetleaf plant response rating [7, 15] | Plant response rating, Velvetleaf [7, 14] | Plant response rating, Cocklebur [9, 22] | Cocklebur plant response rating ([9]; Preemergence, 250 g ai/ha) | Plant response rating, Foxtail, Giant [10, 18] | Plant response rating, Foxtail, Giant [10, 22] | Foxtail, Giant plant response rating ([10]; Preemergence, 250 g ai/ha) | Plant response rating, Foxtail, Green [11, 18]
85: Plant response rating, Foxtail, Green [11, 16]
40: Plant response rating, Corn [2, 12] | Plant response rating, Corn [2, 14] | Plant response rating, Wheat [8, 24] | Plant response rating, Wheat [8, 14]
90: Plant response rating, Barnyardgrass [1, 12] | Plant response rating, Foxtail, Giant [3, 24] | Foxtail, Giant plant response rating [3, 15] | Plant response rating, Crabgrass, Large [4, 12] | Crabgrass, Large plant response rating ([4]; Postemergence, 500 g ai/ha) | Plant response rating, Crabgrass, Large [4, 23] | Plant response rating, Cocklebur [9, 20] | Plant response rating, Foxtail, Green [11, 22] | Foxtail, Green plant response rating ([11]; Preemergence, 250 g ai/ha)
0: Plant response rating, Wheat [8, 23] | Plant response rating, Foxtail, Green [11, 21]
95: Plant response rating, Foxtail, Giant [10, 16] | Plant response rating, Foxtail, Giant [10, 25] | Plant response rating, Foxtail, Giant [10, 19]
20: Plant response rating, Corn [2, 23]
